Assay [1] deals with T1, LRRK2 G2019S (Homo sapiens, UniProt Q5S007, G2019S).
T1 construct: purchased Life Technologies PV4881
Briefly: LRRK2 Kinase Activity Assay (LanthaScreen TR-FRET), G2019S. The format is biochemical. The conditions noted are these: recombinant G2019S-LRRK2, 25 μM ATP, 400 nM LRRKtide, 60 min; class symbols. The gist of the method:
(§1)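 IC50 fitted to the compound-dependent loss of TR-FRET signal. Each kinase form, wild type or G2019S, phosphorylated the fluorescein-tagged ERM-derived LRRKtide in the presence of ATP and compound dilutions over 60 min at room temperature; quench contained 10 mM EDTA and 2 nM anti-pERM antibody (final).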

For assay [2], the target named is T2, LRRK2 WT (Homo sapiens, UniProt Q5S007).
T2 construct: purchased Life Technologies PR8604B
Briefly: LRRK2 Kinase Activity Assay (LanthaScreen TR-FRET), wild type. In kind it is biochemical. The conditions noted are these: recombinant wild type LRRK2, 25 μM ATP, 400 nM LRRKtide, 60 min. The essentials: as §1
In general terms: Time-resolved FRET reads energy transfer from a long-lived donor to a nearby acceptor.

T2 sequence (Q5S007 whole entry): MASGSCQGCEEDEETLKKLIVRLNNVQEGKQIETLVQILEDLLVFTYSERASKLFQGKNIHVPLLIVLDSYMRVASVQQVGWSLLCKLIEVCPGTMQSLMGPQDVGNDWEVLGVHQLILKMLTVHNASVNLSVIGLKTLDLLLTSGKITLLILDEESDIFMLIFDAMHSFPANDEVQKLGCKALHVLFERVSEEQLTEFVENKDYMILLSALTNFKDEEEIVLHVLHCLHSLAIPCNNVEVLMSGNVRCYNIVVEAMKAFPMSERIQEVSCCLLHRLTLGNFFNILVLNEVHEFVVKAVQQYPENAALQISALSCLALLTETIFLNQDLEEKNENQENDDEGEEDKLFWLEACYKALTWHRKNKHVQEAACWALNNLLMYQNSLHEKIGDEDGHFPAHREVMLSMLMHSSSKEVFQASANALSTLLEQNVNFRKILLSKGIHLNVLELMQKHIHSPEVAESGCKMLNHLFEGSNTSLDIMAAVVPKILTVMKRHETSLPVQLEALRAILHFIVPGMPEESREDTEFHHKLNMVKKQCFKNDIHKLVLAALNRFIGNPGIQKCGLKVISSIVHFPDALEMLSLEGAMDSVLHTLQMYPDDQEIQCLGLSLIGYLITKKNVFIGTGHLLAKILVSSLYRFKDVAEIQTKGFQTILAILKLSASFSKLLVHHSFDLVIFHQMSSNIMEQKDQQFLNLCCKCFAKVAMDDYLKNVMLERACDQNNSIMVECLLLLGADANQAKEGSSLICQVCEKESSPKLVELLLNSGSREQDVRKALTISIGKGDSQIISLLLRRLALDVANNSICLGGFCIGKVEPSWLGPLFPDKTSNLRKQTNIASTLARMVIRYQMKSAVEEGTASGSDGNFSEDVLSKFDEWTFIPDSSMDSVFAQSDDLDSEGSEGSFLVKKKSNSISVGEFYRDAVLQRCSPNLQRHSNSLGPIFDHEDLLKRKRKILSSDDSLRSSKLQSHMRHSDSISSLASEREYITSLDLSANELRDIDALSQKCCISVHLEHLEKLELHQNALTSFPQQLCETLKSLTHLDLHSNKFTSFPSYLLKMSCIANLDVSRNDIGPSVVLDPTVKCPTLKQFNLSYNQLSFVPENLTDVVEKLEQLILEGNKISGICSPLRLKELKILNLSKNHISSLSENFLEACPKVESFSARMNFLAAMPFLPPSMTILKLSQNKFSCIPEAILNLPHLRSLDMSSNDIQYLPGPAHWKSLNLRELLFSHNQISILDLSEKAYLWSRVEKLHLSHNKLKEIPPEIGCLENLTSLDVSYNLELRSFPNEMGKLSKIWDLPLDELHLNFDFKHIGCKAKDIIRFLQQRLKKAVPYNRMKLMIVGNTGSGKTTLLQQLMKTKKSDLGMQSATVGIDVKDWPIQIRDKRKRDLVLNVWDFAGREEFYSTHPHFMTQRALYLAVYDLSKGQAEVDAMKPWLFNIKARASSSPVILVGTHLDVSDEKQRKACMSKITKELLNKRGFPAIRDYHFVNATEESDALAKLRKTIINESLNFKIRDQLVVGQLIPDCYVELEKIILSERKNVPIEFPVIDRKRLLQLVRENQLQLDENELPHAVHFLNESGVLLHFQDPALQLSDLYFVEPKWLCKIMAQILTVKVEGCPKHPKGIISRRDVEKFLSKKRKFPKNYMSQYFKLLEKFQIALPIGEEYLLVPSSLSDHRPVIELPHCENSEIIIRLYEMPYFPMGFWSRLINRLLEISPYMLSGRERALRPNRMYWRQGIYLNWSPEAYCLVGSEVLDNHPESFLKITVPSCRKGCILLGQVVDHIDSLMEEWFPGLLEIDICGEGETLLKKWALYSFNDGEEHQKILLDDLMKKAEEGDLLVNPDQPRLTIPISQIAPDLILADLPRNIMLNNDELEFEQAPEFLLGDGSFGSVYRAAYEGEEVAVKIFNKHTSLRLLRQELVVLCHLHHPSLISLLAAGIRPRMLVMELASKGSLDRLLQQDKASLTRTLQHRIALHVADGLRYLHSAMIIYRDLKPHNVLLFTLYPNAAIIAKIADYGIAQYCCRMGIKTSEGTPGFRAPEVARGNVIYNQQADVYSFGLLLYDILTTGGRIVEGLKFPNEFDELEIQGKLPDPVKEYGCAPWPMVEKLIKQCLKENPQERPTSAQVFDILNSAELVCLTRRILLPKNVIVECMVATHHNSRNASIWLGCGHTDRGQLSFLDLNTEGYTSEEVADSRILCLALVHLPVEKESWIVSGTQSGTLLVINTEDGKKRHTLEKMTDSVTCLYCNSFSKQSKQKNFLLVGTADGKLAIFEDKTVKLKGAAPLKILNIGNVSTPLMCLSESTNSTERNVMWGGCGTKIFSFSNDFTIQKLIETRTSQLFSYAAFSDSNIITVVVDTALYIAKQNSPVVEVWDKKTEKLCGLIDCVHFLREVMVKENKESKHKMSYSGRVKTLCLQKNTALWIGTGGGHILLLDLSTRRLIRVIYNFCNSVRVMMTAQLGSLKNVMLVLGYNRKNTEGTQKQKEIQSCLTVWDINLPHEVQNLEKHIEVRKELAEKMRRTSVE
T1 sequence (Q5S007 whole entry G2019S): as the sequence (Q5S007 whole entry) above, with G2019S counted along it

A word on the IC50: it is the concentration that gives 50% inhibition. Take `N#Cc1cccc(-c2n[nH]c3ccc(N[C@H]4CCCc5cc(C#N)ccc54)cc23)c1` (single isomer, unassigned) [Example 89, 5-((3-(3-Cyanophenyl)-1H-indazol-5-yl)amino)-5,6,7,8-tetrahydronaphthalene-2-carbonitrile]: the IC50 in assay [1] and in assay [2] (class symbols) was less than 100 nM each time.

In the case of `N#Cc1ccc2c(c1)CCC[C@@H]2Nc1ccc2[nH]nc(-c3ccc(C#N)nc3)c2c1` (single isomer, unassigned) [Example 91, 5-(5-((6-Cyano-1,2,3,4-tetrahydronaphthalen-1-yl)amino)-1H-indazol-3-yl)picolinonitrile], the IC50 in assay [1] was less than 100 nM; in assay [2] (class symbols), 100 to 1000 nM.

With `COc1ccc(-c2n[nH]c3ccc(N[C@H]4CCCc5cc(C#N)ccc54)cc23)cc1` (single isomer, unassigned) [Example 92, 5-((3-(4-Methoxyphenyl)-1H-indazol-5-yl)amino)-5,6,7,8-tetrahydronaphthalene-2-carbonitrile], the IC50 in assay [1] was less than 100 nM; in assay [2] (class symbols), 100 to 1000 nM.

`N#Cc1ccc2c(c1)CCC[C@@H]2Nc1ccc2[nH]nc(/C=C/c3ccccc3)c2c1` (single isomer, unassigned) [Example 93, (E)-5-((3-Styryl-1H-indazol-5-yl)amino)-5,6,7,8-tetrahydronaphthalene-2-carbonitrile]: the IC50 in assay [1] and in assay [2] (class symbols) was less than 100 nM throughout.

Consider `CN1CC=C(c2n[nH]c3ccc(N[C@H]4CCCc5cc(C#N)ccc54)cc23)CC1` (single isomer, unassigned) [Example 94, 5-((3-(1-Methyl-1,2,3,6-tetrahydropyridin-4-yl)-1H-indazol-5-yl)amino)-5,6,7,8-tetrahydronaphthalene-2-carbonitrile], for which the IC50 is 1000 to 10000 nM in assay [1] and greater than 10000 nM in assay [2] (numeric bound).

Regarding `N#Cc1ccc2c(c1)CCC[C@@H]2Nc1ccc2[nH]nc(-c3ccc(Br)cc3)c2c1` (single isomer, unassigned) [Example 95, 5-((3-(4-Bromophenyl)-1H-indazol-5-yl)amino)-5,6,7,8-tetrahydronaphthalene-2-carbonitrile], the values for the IC50 in assay [1] and in assay [2] (class symbols) were less than 100 nM and 1000 to 10000 nM, respectively.

For the compound `N#Cc1ccc2c(c1)CCC[C@@H]2Nc1ccc2[nH]nc(-c3cnn4c3CCC4)c2c1` (single isomer, unassigned) [Example 96, 5-((3-(5,6-Dihydro-4H-pyrrolo[1,2-b]pyrazol-3-yl)-1H-indazol-5-yl)amino)-5,6,7,8-tetrahydronaphthalene-2-carbonitrile], the concentration for half-maximal inhibition (IC50) in assay [1] and in assay [2] (class symbols) was less than 100 nM in each case.

For `Cn1ccc(-c2n[nH]c3ccc(N[C@H]4CCCc5cc(C#N)ccc54)cc23)cc1=O` (single isomer, unassigned) [Example 97, 5-((3-(1-Methyl-2-oxo-1,2-dihydropyridin-4-yl)-1H-indazol-5-yl)amino)-5,6,7,8-tetrahydronaphthalene-2-carbonitrile], the IC50 in assay [1] was less than 100 nM; in assay [2] (class symbols), 100 to 1000 nM.

`N#Cc1ccc2c(c1)CCC[C@@H]2Nc1ccc2[nH]nc(-c3cccnc3)c2c1` (single isomer, unassigned) [Example 98, 5-((3-(Pyridin-3-yl)-1H-indazol-5-yl)amino)-5,6,7,8-tetrahydronaphthalene-2-carbonitrile]: the IC50 in assay [1] and in assay [2] (class symbols) was less than 100 nM in each case.

Regarding `C/C=C\c1n[nH]c2ccc(N[C@H]3CCCc4cc(C#N)ccc43)cc12` (single isomer, unassigned) [Example 99, (Z)-5-((3-(Prop-1-en-1-yl)-1H-indazol-5-yl)amino)-5,6,7,8-tetrahydronaphthalene-2-carbonitrile], the IC50 is less than 100 nM in assay [1] and 100 to 1000 nM in assay [2] (class symbols).

On to `Cc1cncc(-c2n[nH]c3ccc(N[C@H]4CCCc5cc(C#N)ccc54)cc23)c1` (single isomer, unassigned) [Example 100, 5-((3-(5-Methylpyridin-3-yl)-1H-indazol-5-yl)amino)-5,6,7,8-tetrahydronaphthalene-2-carbonitrile], for which the IC50 in assay [1] and in assay [2] (class symbols) was less than 100 nM throughout.

For the origin of these results see patent publication US20230148214A1, “INDAZOLES AND AZAINDAZOLES AS LRRK2 INHIBITORS” (ESCAPE Bio, Inc., priority 2020, published 2023).
